Source: ChEMBL document CHEMBL5620392, “Spiroindole-containing compounds bearing phosphonate group of potential Mpro-SARS-CoV-2 inhibitory properties” (Eur J Med Chem, 2023)

Columns and labels:
[1] = test system: SARS-CoV-2; test: Antiviral activity against SARS-CoV-2 infected in African green monkey Vero E6 cells; format: functional, organism-based; details: Severe acute respiratory syndrome coronavirus 2, Vero C1008
[2] = test system: SARS-CoV-2; test: Antiviral activity against SARS-CoV-2 infected in African green monkey Vero E6 cells assessed as inhibition of viral infection; format: functional, organism-based; details: Severe acute respiratory syndrome coronavirus 2, Vero C1008
[3] = Selectivity index, ratio of CC50 for African green monkey Vero E6 cells to IC50 for SARS-CoV-2 infected in African green monkey Vero E6 cells; format: toxicity; details: read-out: Selectivity Index
[4] = Cytotoxicity against African green monkey Vero E6 cells assessed as reduction in cell viability; format: toxicity, cell-based, Vero C1008; details: chlorocebus sabaeus

COc1cccc2[nH]c(C(=O)N[C@@H](CC(C)C)C(=O)N[C@@H](C[C@@H]3CCNC3=O)C(=O)CO)cc12 [PF-00835231]
EC50 [1]: ≤ 0.23 µM

CCN(CC)CCCC(C)Nc1ccnc2cc(Cl)ccc12 (stereo not drawn) [CHLOROQUINE]
IC50 [2]: 25 µM

NC(=O)c1nc(F)cnc1O
selectivity ratio [3]: 3.8
CC50 [4]: 5260 µM
IC50 [2]: 1380 µM

CCN(CCO)CCCC(C)Nc1ccnc2cc(Cl)ccc12 (stereo not drawn) [HYDROXYCHLOROQUINE]
selectivity ratio [3]: 9.7
CC50 [4]: 356 µM
IC50 [2]: 36.9 µM
